One assay concerns lung line L2987. As to the kind of experiment: Cytotoxicity assay (alamarBlue viability). The format is cell-based. The conditions noted are these: Homo sapiens. The protocol:
Figure 1, 2 and 3 are the cytotoxicity dose response curves for lung line L2987. […] Briefly, the assayed involved plating 1000 cells per well in a volume of 120 µL in a 96 well flat-bottom dish (Corning) on day -1. Twenty-four hours later the appropriate dilution of a compound of formula I was added in a volume of 30 µL complete medium (final volume 150 µL). The plates were sealed with a plate sealer (Dynatech Labs) to prevent evaporation. On day 5 the mylar film was removed and 15 µL of sterile alamarBlue was added to each well and the cells were incubated 37 °C 5% CO2 for two hours. Using a Vmax plate reader the optical density for each well was determined having the OD570 subtracted from the OD600. The 100% signal was determined for cells grown in complete medium containing only 0.5% DMSO. All wells were set-up in triplicate and the mean values were plotted in Figures 1, 2 and 3.
(In general: Alamar Blue is a resazurin reagent that responds to reducing activity.)

The test system of another assay is rhino mouse. The experiment in a line: Rhino mouse utriculi reduction assay. The format is in vivo, female hairless rhino mice (hr^rh/hr^rh). The conditions noted are these: concentration to reach 30% utriculi reduction; topical in ethanol vehicle (50ul) to dorsal area once daily for 5 days; tested range 0.00033 mM to 16.5 mM. The protocol:
Representatives from compounds of formula I were tested for their effect on utriculi reduction on rhino mouse and directly compared to all-trans retinoic acid.
Six to nine week old female hairless rhino mice (hr^rh/hr^rh) were produced in the Bristol-Myers Squibb colony. Test retinoids in ethanol vehicle (50ul) were applied to the dorsal area (approximately 1.5 x 3 cm^2) of rhino mice once daily for 5 days (Monday to Friday). For various retinoids, a dose response was obtained with concentrations ranging from 0.00033 mM to 16.5 mM. The animals were sacrificed on the following Monday by CO2 inhalation. A 7/8" full thickness punch was taken from the central dorsal area of each animal. The epidermis of the biopsy was removed from the dermis after incubation in 0.5% acetic acid overnight at 4°C. The separated epidermis was then fixed in formalin, dehydrated with ethanol, and cleared in xylene. To determine the utriculi diameter, each epidermis sheet was placed on a glass slide in xylene. For each specimen, the diameter of 40 utricules was measured with an image analysis system (IBM PC, Image Measure program and Olympus microscope with video camera). % Utriculi reduction was calculated as (1 -(utriculi diameter in the test group)/(utriculi diammeter in the ethanol control group))× 100% [formula] […]

Setting [1] is: L2987, L2987 experiment 2, 1000 cells per well, compound added after 24 h, read on day 5, read-out: IC50.

By IC50 is commonly meant the midpoint of a concentration-inhibition curve.

Molecules are shown by their SMILES. Like-named read-outs stand apart in the source and are kept apart here.

For the molecule `CC1=C(/C=C/C(C)=C/C=C/C(C)=C/C(=O)O)C(C)(C)CCC1` [All trans retinoic acid, reference compound], inhibition in the assay on lung line L2987 (L2987) was half-maximal at 68 µM (IC50).

Take `CC1(C)CC=C(c2ccccc2)c2cc(C(=O)Nc3ccc(C(=O)O)cc3)ccc21` [I^4a]: the IC50 in the assay on lung line L2987 (setting [1]) came out at 28 µM.

Turning to `CC1(C)CC=C(c2ccccc2)c2cc(C(=O)Oc3ccc(C(=O)O)cc3)ccc21` [I^10a], the IC50 with lung line L2987 (setting [1]) came to 47 µM.

On to `CC1(C)CC=C(c2ccccc2)c2cc(C(=O)Sc3ccc(C(=O)O)cc3)ccc21` [I^12a], for which, in the assay with lung line L2987 (setting [1]), the IC50 was more than 100 µM.

For the molecule `CC1(C)CC=C(c2ccccc2)c2cc(COc3ccc(C(=O)O)cc3)ccc21` [I^26a, 4-[[[(5,6-Dihydro-5,5-dimethyl-8-phenyl)-2-naphthalenyl]methyl]oxy]benzoic acid], the half-maximal inhibitory concentration (IC50) in the assay on lung line L2987 (setting [1]) was 48 µM.

Take `CC1(C)C=C(c2ccccc2)c2cc(C(=O)Nc3ccc(C(=O)O)cc3)ccc21` [I^30a, 4-[(1,1-Dimethyl-3-phenyl-1H-indene-5-carbonyl)amino]benzoic acid]: the ED30 in the assay on rhino mouse amounted to 2.35. In the assay on lung line L2987 (setting [1]), the IC50 was determined as 60 µM.

In turn, `CC1(C)C=C(c2ccccc2)c2cc(C=Cc3ccc(C(=O)O)cc3)ccc21` [I^33a, 4-[2-(1,1-dimethyl-3-phenyl-1H-inden-5-yl)vinyl]benzoic acid] showed an ED30 in the assay on rhino mouse of 0.86.

The values above are taken from EP0661259B1, “Substituted (5,6)-dihydronaphthalenyl compounds having retinoid-like activity” (BRISTOL-MYERS SQUIBB COMPANY, priority 1994, dated 1995).
